Measured values from patent publication US11007148B2, “Amphiphilic block copolymers for delivery of active agents” (priority 2014, dated 2021).
Counter-ions that a name gives are not always drawn.

Experiments:
[1] = free drug; cited from earlier work
[2] = mouse, in vivo
Source text: In this example the kinetic properties of loaded micelles with PTX are studied in vivo using the fluorophore labels Cy7 and Cy5.5. Cy7 was covalently linked to the polymer chain and reports about the fate of the injected micelles; Cy5.5 was physically loaded in the core of the micelles and used as a modal drug.
CD-1 nude female mice (n=5) were fed with chlorophyll-free food pellets and water ad libitum, and caged in ventilated cages and clinically controlled rooms and atmosphere.

half-life of the Cy5.5 label relative to the micelles [2]	Molecule	Log P [1]
–	COc1cccc2c1C(=O)c1c(O)c3c(c(O)c1C2=O)C[C@@](O)(C(=O)CO)C[C@@H]3O[C@H]1C[C@H](N)[C@H](O)[C@H](C)O1 [DOX•HCl, doxorubicin hydrochloride]	2.82
–	COc1nc2ccc(Br)cc2cc1[C@@H](c1ccccc1)[C@@](O)(CCN(C)C)c1cccc2ccccc12 [Bedaquiline]	7.59
–	C[C@H](NC(=O)Cc1cc(F)cc(F)c1)C(=O)N[C@H](C(=O)OC(C)(C)C)c1ccccc1 [DAPT]	3.54
–	CC(=O)O[C@H]1C(=O)[C@@]2(C)[C@H]([C@H](OC(=O)c3ccccc3)[C@]3(O)C[C@H](OC(=O)[C@H](O)[C@@H](NC(=O)c4ccccc4)c4ccccc4)C(C)=C1C3(C)C)[C@]1(OC(C)=O)CO[C@@H]1C[C@@H]2O [Paclitaxel]	4.7
shorter half-life	Cy5.5	–
